We go through four compounds from PMC6402572 (ChemMedChem, 2018).

A value given as a limit tells only on which side of the number the result lay.

The subject of one test is HCT116 cells. Put plainly: Soft agar anchorage-independent growth assay, HCT116 cells. In kind it is cell-based. The conditions noted are these: read-out: GI50, anchorage-independent growth of HCT116 cells, Control, without SIRT2 overexpression.
For test [1], the system named is HCT116 cells with SIRT2 overexpression. Particulars: read-out: GI50, anchorage-independent growth of HCT116 cells, SIRT2 expression, soft agar.
In a further test the test system is MCF10A cells. As to the kind of experiment: Cytotoxicity. In kind it is cell-based. The conditions noted are these: read-out: GI50 in MCF10A cells; normal mammary epithelial cell line.
A further test concerns the target T1, SIRT3 (Homo sapiens, UniProt Q9NTG7).
T1 sequence (Q9NTG7 1-399): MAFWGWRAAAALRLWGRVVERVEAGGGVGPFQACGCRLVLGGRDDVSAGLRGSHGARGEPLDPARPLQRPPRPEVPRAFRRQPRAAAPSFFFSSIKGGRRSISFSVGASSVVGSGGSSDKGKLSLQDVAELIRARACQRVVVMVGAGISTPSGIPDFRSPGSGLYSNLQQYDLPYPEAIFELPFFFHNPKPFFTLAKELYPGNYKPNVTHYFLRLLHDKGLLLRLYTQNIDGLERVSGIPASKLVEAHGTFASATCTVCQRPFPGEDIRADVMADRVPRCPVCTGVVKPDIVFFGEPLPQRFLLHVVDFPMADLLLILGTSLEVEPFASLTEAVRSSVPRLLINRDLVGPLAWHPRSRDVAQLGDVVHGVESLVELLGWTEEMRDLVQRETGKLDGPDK
Put plainly: HPLC-based SIRT3 deacetylation assay. Particulars: with pre-incubation. In kind it is biochemical.

A further test deals with HME-1 cells. Put plainly: Cytotoxicity. In kind it is cell-based. The conditions noted are these: read-out: GI50 in HME-1 cells; normal mammary epithelial cell line.
A further test deals with SIRT6 (Homo sapiens, UniProt Q8N6T7). Put plainly: HPLC-based SIRT6 demyristoylation assay. Particulars: with pre-incubation. In kind it is biochemical.
Sequence of SIRT6 (Q8N6T7 whole entry, species assumed): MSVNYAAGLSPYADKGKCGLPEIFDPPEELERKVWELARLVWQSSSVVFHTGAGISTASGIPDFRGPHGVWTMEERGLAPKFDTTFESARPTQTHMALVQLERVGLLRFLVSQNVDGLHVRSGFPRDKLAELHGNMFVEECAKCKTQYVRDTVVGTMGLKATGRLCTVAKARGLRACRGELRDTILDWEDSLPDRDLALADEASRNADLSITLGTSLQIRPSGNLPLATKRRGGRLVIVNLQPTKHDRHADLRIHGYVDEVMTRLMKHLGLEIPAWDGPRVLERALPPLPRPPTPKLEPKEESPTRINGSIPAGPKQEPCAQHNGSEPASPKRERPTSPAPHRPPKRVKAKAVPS

As for `N#C/C(=C\c1ccc(-c2cc(Cl)ccc2Cl)o1)C(=O)Nc1cccc2ncccc12` [AGK2], the GI50 with HCT116 cells amounted to 24.1 µM; in test [1], 27.6 µM.
In the same order, the values of `Cc1cc(C)nc(SCC(=O)Nc2ncc(Cc3cccc4ccccc34)s2)n1` [SirReal2] are 55.8 µM and 58.1 µM.
On to `CCCCCCCCCCCCCC(=S)NCCCCC(NC(=O)OCc1ccccc1)C(=O)Nc1ccccc1` (centres unmarked) [TM], for which the GI50 in the test on HCT116 cells was 13.5 µM; with MCF10A cells, > 50 µM; in the test with HME-1 cells, > 50 µM; in test [1], 24.2 µM. The “Inhibition of SIRT3” value at SIRT3 was “essentially did not inhibit”. On SIRT6, the “Inhibition of SIRT6” value was “essentially did not inhibit”.
`CN(C)CCCCC(=O)Nc1ccc(NC(=S)NC(=O)c2ccc(C(C)(C)C)cc2)cc1` [Tenovin-6]: the GI50 with HCT116 cells stood at 2.1 µM.

A word on the GI50: it is the concentration at which growth is held to half of that of the control.
